Patent US20170173070A1, “METHODS OF ADMINISTERING LMWH” (MOMENTA PHARMACEUTICALS, INC., priority 2014, published 2017)
“Also recorded” adds a separate entry of the source.

Assays:
[1] = tested on: pancreatic tumors of KPFMC mice; test: Histological examination of KPFMC pancreatic tumors for invasion (intestine, biliary tract); format: in vivo
Procedure: (§1) FIG. 3A depicts H&E sections of pancreatic tumors from KPFMC mice at clinical endpoint. The tumors were analyzed microscopically to identify intestinal invasion (upper panel). […] Expression values are depicted in the heat map. FIG. 3D is a bar graph showing the influence of gemcitabine treatment on the invasive behavior of tumor cells. The cells were analyzed by quantification of double positive E-cadherin and Fsp1 cells in tumor sections of mice treated with saline and gemcitabine until clinical endpoint.
(§2) Tumor cells having increased Wnt/β-catenin signaling are known to be invasive. […] This observation supports that gemcitabine monotherapy results in an invasive tumor phenotype. To confirm that gemcitabine monotherapy results in an invasive tumor phenotype, a cohort of KPFMC mice were exposed to gemcitabine monotherapy (100 mg/kg), starting at day 45 after birth. The tumors were subsequently harvested at the clinical humane endpoint. […] This observation supports that gemcitabine monotherapy results in an invasive tumor phenotype.

[2] = tested on: tumor cells undergoing EMT in KPFMC pancreatic tumors; test: Quantification of tumor cells undergoing EMT (E-cadherin/Fsp1 double positive cells) in KPFMC tumor sections; format: in vivo, mice; settings: gemcitabine vs saline, treated until clinical endpoint
Procedure: (§3) Expression values are depicted in the heat map. Mice were treated from day 30 after birth until day 51. […] FIG. 4C is an immunofluorescence image of a section from a saline treated KPFMC mouse pancreas co-stained with E-cadherin and Fsp1 showing high magnification view of cells that co-express both the epithelial and mesenchymal marker (left panel).
(§4) Expression values are depicted in the heat map. Color intensities indicate the fold change with M402+gemcitabine combination therapy over M402. FIG. 5B is a bar graph showing the influence of M402 treatment on the invasive behavior of tumor cells induced by gemcitabine. Tumor sections derived from mice treated with saline and gemcitabine until clinical endpoint were analyzed by quantification of cells positive for E-cadherin and Fsp1 in tumor. FIG. 5C is a bar graph showing the quantification of intact Islets of Langerhans (lower panel) from pancreatic tumors after the indicated treatments. (Means±SD are depicted; *P<0.05, NS P>0.05, Student's t test).
Tumor cells having increased Wnt/β-catenin signaling are known to be invasive. […] This observation supports that gemcitabine monotherapy results in an invasive tumor phenotype. To confirm that gemcitabine monotherapy results in an invasive tumor phenotype, a cohort of KPFMC mice were exposed to gemcitabine monotherapy (100 mg/kg), starting at day 45 after birth. […]

RTK phosphorylation = test: Phospho-RTK array analysis of KPFMC pancreatic tumors; format: in vivo, mice; settings: gemcitabine treated KPFMC tumors
Procedure: as §1, §3
as §4, with “FIG. 5B is a bar graph showing the influence of M402 treatment on the invasive behavior of tumor cells induced by gemcitabine.” left out, “(Means±SD are depicted; *P<0.05, NS P>0.05, Student's t test).” left out

[3] = tested on: Wnt/β-catenin signaling pathway; test: Expression of members of the Wnt/β-catenin signaling pathway; format: in vivo; settings: gemcitabine monotherapy
Text: FIGS. 6A and 6B depict the effect of gemcitabine treatment on the Wnt/β-catenin signaling pathway.
FIGS. 7A and 7B depict the effect of pretreatment with M402 followed by subsequent gemcitabine/M402 combination treatment on the Wnt/β-catenin signaling pathway.
as §2
This observation supports that M402 inhibits the gemcitabine induced invasive tumor phenotype.

[4] = tested on: pancreatic ductal adenocarcinoma (PDA); settings: cited from earlier work

SMILES: Nc1ccn([C@@H]2O[C@H](CO)[C@@H](O)C2(F)F)c(=O)n1 [gemcitabine]
- biliary tract obstruction / obstructive jaundice (invasion into the biliary tree) ([1]; gemcitabine monotherapy 100 mg/kg from day 45, clinical endpoint): obstructive jaundice; also recorded: invasion increased
- intestinal invasion of pancreatic tumors ([1]; gemcitabine monotherapy 100 mg/kg from day 45 after birth, clinical endpoint, vs saline): increased invasion into the adjacent intestine; also recorded: number of mice with intestinal invasion increased
- tumor cells undergoing EMT (E-cadherin/Fsp1 double positive cells) [2]: increase in tumor cells undergoing EMT
- RTK phosphorylation in pancreatic tumors (RTK phosphorylation): increased the phosphorylation of several RTKs; also recorded: increase in RTK phosphorylation
- expression of members of the Wnt/β-catenin signaling pathway [3]: increases expression of several members of the Wnt/β-catenin signaling pathway
- overall survival ([4]; adjuvant gemcitabine post surgical removal of a pancreatic tumor): prolong overall survival
- survival benefit ([4]; gemcitabine monotherapy in the absence of surgery): failed to show an extensive survival benefit
